Data published in US20230349008A1, “PAPER-BASED SAMPLE TESTING DEVICES AND METHODS THEREOF” (CORNELL UNIVERSITY, priority 2020, published 2023).

Tests used:
[1] = system: E. coli BAA-2452; details: vendor MIC interpretation; cited from earlier work
[2] = system: E. coli ATCC-25922; assay: On-chip paper-based antimicrobial susceptibility testing (AST), resazurin colorimetric readout; format: cell-based, Escherichia coli; details: eight test zones: seven antibiotic concentrations plus no-antibiotic control; overnight 37° C.; 5×10^5 CFU/mL; hue threshold
From the text: (§1) To functionalize the chips for AST, antibiotics and the growth-sensitive dye resazurin were pre-dried on the chip to enable testing with a single sample addition step. Antibiotics used consisted of ampicillin, meropenem, gentamicin, and ciprofloxacin (all sourced from MilliporeSigma). The growth-sensitive dye resazurin (PrestoBlue, Thermo Fisher) is a redox indicator that is reduced by metabolically active cells into resorufin, leading to significant colorimetric and fluorescent changes which provide a visual indication of bacterial growth as disclosed in Guerin, et al., “Application of resazurin for estimating abundance of contaminant-degrading micro-organisms,” Lett. Appl. […] Using a spectrophotometer (V-1200, VWR), the OD625 nm absorbance corresponding to a 0.5 McFarland standard was verified to be in the range of 0.08-0.13 22. […] To quantitatively analyze color change in the test zones following incubation, test chips were imaged using a smartphone and analyzed in MATLAB (MathWorks). Images were analyzed in the hue, saturation, value (HSV) color-space which we determined to be less sensitive to lighting conditions compared to the red, blue, green (RGB) color-space. For each test zone, the average hue value in a 160-pixel diameter circular region was calculated and a threshold was used to differentiate between zones with reduced (growth) and unreduced (no growth) resazurin. […]

[3] = system: E. coli BAA-2452; assay: as above; format: cell-based, Escherichia coli; details: eight test zones: seven antibiotic concentrations plus no-antibiotic control; overnight 37° C.; 5×10^5 CFU/mL; hue threshold
From the text: as §1

[4] = system: E. coli ATCC-25922; details: vendor MIC interpretation; cited from earlier work

CC1(C)S[C@@H]2[C@H](NC(=O)[C@H](N)c3ccccc3)C(=O)N2[C@H]1C(=O)O [ampicillin]
susceptibility category via off-chip AST [1]: resistant | number of positive test zones (reduced resazurin, uninhibited growth) [2]: no-antibiotic control positive only | number of positive test zones (reduced resazurin, uninhibited growth) [3]: six | susceptibility category via off-chip AST [4]: susceptible
